“Also recorded” adds a separate entry of the source. Values belong to the molecule of their own block, whether it stands above or below them.
Assays:
[1] = system: LLC1-derived lung tumor nodules; settings: CQ in conjunction with CZT, relative to CZT or CQ administered separately; cited from earlier work
epithelial BEAS2B cells = assay: GRP78 cell surface expression in normal BEAS2B cells (FIG. 1); type: cell-based
Excerpt: (§1) To maximize the apoptotic effect of secreted Par-4 on lung tumors, the second active agent is effective to elevate GRP78 on the surface of cancer cells and thereby complements the apoptotic action of secreted Par-4. […] Approximately 5% of patients with non-small cell lung cancer (NSCLC) have tumors that contain an inversion in chromosome 2 that juxtaposes the 5′ end of the echinoderm microtubule-associated protein-like 4 (EML4) gene with the 3′ end of the ALK gene. This juxtaposition results in the fusion oncogene called EML4-ALK. ALK+ tumors are highly sensitive to therapy with ALKtargeted inhibitors. […] On the other hand, phosphorylation of SRC at tyrosine 530 (Y530) by C-terminal SRC kinase (Csk) and Csk homologous kinase results in inactivation of SRC.

lung cancer cells [2] = settings: previous studies (background); cited from earlier work
[3] = system: p53-deficient KP7B lung tumor cells; assay: GRP78 cell surface expression in KP7B lung tumor cells (FIG. 1); type: cell-based
Excerpt: as §1

cancer cells = assay: Cell surface expression of GRP78 in cancer cells (FIG. 1 legend); type: cell-based
[4] = system: normal lung fibroblast HEL cells; assay: GRP78 cell surface expression in normal HEL cells (FIG. 1); type: cell-based
Excerpt: as §1

lung cancer cells [5] = assay: GRP78 cell surface translocation in lung cancer cells (FIG. 2); type: cell-based; settings: nanomolar concentrations
Excerpt: as §1

[6] = system: tyrosine-protein kinase SRC; assay: SRC activation (FIG. 3); type: cell-based; settings: lung cancer cells
Excerpt: Dephosphorylation of Y530 by phosphatases results in autophosphorylation of SRC at Y419, leading to activation. SRC activation triggers a signaling cascade that prevents retrograde trafficking of proteins from the Golgi to the ER and promotes GRP78 translocation from the Golgi to the cell surface.

normal cells = assay: Par-4 secretion from normal cells; type: cell-based; settings: levels relative to those achieved previously with chloroquine

SMILES: CCN(CC)CCCC(C)Nc1ccnc2cc(Cl)ccc12 (stereo not drawn) [CQ, chloroquine]
inhibition of LLC1-derived lung tumor nodules [1]: significantly greater inhibition

SMILES: C[C@@H](Oc1cc(-c2cnn(C3CCNCC3)c2)cnc1N)c1c(Cl)ccc(F)c1Cl [CZT, Crizotinib]
Par-4 receptor GRP78 on the cell surface (epithelial BEAS2B cells): not
Par-4 receptor GRP78 levels on lung cancer cells (lung cancer cells [2]): inducer
Par-4 receptor GRP78 on the cell surface [3]: elevated
cell surface expression of GRP78 in cancer cells (cancer cells): induces
Par-4 receptor GRP78 on the cell surface [4]: not

SMILES: COCCn1c2c([n+](Cc3cnccn3)c1C)C(=O)c1ccccc1C2=O [YM155]
GRP78 cell surface translocation (lung cancer cells [5]): induce cell surface expression of GRP78; also recorded: induced GRP78 cell surface translocation

activation of SRC [6]: cause the activation of SRC
SMILES: CCc1cc2c(cc1N1CCC(N3CCOCC3)CC1)C(C)(C)c1[nH]c3cc(C#N)ccc3c1C2=O [alectinib]

SMILES: COc1cc(Nc2ncc3c(n2)-c2ccc(Cl)cc2C(c2c(F)cccc2OC)=NC3)ccc1C(=O)O [alisertib]
GRP78 cell surface translocation (lung cancer cells [5]): induce cell surface expression of GRP78; also recorded: induced GRP78 cell surface translocation

SMILES: COc1cccc2c1C(=O)c1c(O)c3c(c(O)c1C2=O)C[C@@](O)(C(=O)CO)C[C@@H]3O[C@H]1C[C@H](N)[C@H](O)[C@H](C)O1 [doxorubicin]
Par-4 secretion from normal cells (normal cells): comparable to, or higher than

SMILES: COc1cc([C@@H]2c3cc4c(cc3[C@@H](O[C@@H]3O[C@@H]5CO[C@@H](C)O[C@H]5[C@H](O)[C@H]3O)[C@H]3COC(=O)[C@H]23)OCO4)cc(OC)c1O [etoposide]
Par-4 secretion from normal cells (normal cells): comparable to, or higher than

SMILES: CCc1c2c(nc3ccc(OC(=O)N4CCC(N5CCCCC5)CC4)cc13)-c1cc3c(c(=O)n1C2)COC(=O)[C@]3(O)CC [irinotecan]
Par-4 secretion from normal cells (normal cells): comparable to, or higher than

— patent US20210252032A1, “DRUGS FOR GRP78 CELL SURFACE TRANSLOCATION AND PAR-4 SECRETION” (University of Kentucky Research Foundation, priority 2020, published 2021)
